This note sets out measurements from US12465049B2, “Pest control method, and pest control agent composition and pest control agent set” (Nippon Soda Co., Ltd., priority 2019, dated 2025).

The test has as its system Tetranychus urticae. Put plainly: Test for confirming effect on Tetranychus urticae (kidney bean leaves in petri dish, sprinkling; survival numbers of next generation). Format: in vivo. The procedure:
Test for Confirming Effect on Tetranychus urticae
Ten Tetranychus urticae female imagoes were inoculated on kidney bean leaves placed in each petri dish on the day before chemical solution treatment.
A flowable agent containing the compound A was diluted with water containing RABIDEN 3S diluted 5000 times to prepare chemical solutions A containing the compound A at twice concentrations described in Table 3, respectively.
A preparation containing the compound B or a flowable agent containing the compound B was diluted with water containing RABIDEN 3S diluted 5000 times to prepare chemical solutions B containing the compound B at twice concentrations described in Table 3, respectively.
{Preparations Used in Test Examples and Containing the Compound B}
• Test numbers a and b: hexythiazox: Nissorun wettable powder (produced by Nippon Soda Co., Ltd.) • Test numbers c and d: abamectin: Agri-Mek (produced by Syngenta Japan K.K.) • Test numbers e and f: fenpyroximate: DANITRON flowable (produced by NIHON NOHYAKU CO., LTD.) • Test numbers g and h: acetamiprid: MOSPILAN water soluble powder (produced by Nippon Soda Co., Ltd.) • Test number i: propargite: Omite wettable powder (produced by NIHON NOHYAKU CO., LTD.)
A mixed solution obtained by mixing the chemical solution A and the chemical solution B in an equivalent amount was sprinkled on a petri dish containing kidney bean leaves on which Tetranychus urticae was inoculated at 2 mg per 1 cm^2 with a rotatory sprinkling tower (AB mixture application plot).
The chemical solution A and the chemical solution B were twice diluted with the water containing RABIDEN 3S diluted 5000 times to obtain a chemical solution A′ and a chemical solution B′, respectively.
The chemical solution A′ was sprinkled on another petri dish containing kidney bean leaves on which Tetranychus urticae was inoculated at 2 mg per 1 cm^2 with a rotatory sprinkling tower (A single application plot). The Chemical solution B′ was sprinkled on another petri dish containing kidney bean leaves on which Tetranychus urticae was inoculated at 2 mg per 1 cm^2 with a rotatory sprinkling tower (B single application plot).
Then, the petri dishes on which the chemical solutions were sprinkled were placed in a thermostatic chamber at a temperature of 25° C. and a humidity of 60%. All the imagoes were removed after 3 days elapsed from the sprinkling. Then, the petri dishes from which the imagoes were removed were placed in a thermostatic chamber at a temperature of 25° C. and a humidity of 60%. When 10 days elapsed from the sprinkling, the survival numbers of the next generation were investigated, and the effectivenesses were calculated. Effectiveness (%)=(Cn−Tn)/Cn×100 • Cn: Survival numbers of next generation in non-treatment plot after 10 days • Tn: Survival numbers of next generation in treatment plot after 10 days
To show the degree of a synergistic effect, the “effectiveness expectation” was calculated based on the Colby method. When the effectiveness is higher than the “effectiveness expectation”, it is determined that there is a synergistic effect. Expectation of effectiveness (%)(E)=X+Y−XY/100 • X: measurement of effectiveness in B single application plot (%) • Y: measurement of effectiveness in A single application plot (%)

As to `CCCOc1cc(C(F)(F)F)ccc1O[C@H]1C[C@H]2CCC[C@@H](C1)N2Oc1ccc(C(F)(F)F)cn1` [acynonapyr], the “Effectiveness Found” value (acynonapyr 0.4 ppm, B single application plot, 10 days after sprinkling) came to 58%.

For `Cc1nn(C)c(Oc2ccccc2)c1C=NOCc1ccc(C(=O)OC(C)(C)C)cc1` [fenpyroximate], the “Effectiveness Found” value (fenpyroximate 2.5 ppm, B single application plot, 10 days after sprinkling) turned out to be 67%.

Regarding `C#CCOS(=O)OC1CCCCC1Oc1ccc(C(C)(C)C)cc1` (centres unmarked) [propargite], the “Effectiveness Found” value (propargite 5 ppm, B single application plot, 10 days after sprinkling) turned out to be 24%.

`C[C@@H]1[C@@H](c2ccc(Cl)cc2)SC(=O)N1C(=O)NC1CCCCC1` [hexythiazox]: under “hexythiazox 1 ppm, B single application plot, 10 days after sprinkling”, the “Effectiveness Found” value is 58%.

On to abamectin, for which, for the setting “abamectin 0.07 ppm, B single application plot, 10 days after sprinkling”, the “Effectiveness Found” value worked out at 42%.

Turning to `CCN(Oc1cc(Br)cc(C(F)(F)F)c1)C(=O)NC(C)(C)C(=O)NCC(F)(F)F` [Compound (II), 2-{3-[3-bromo-5-(trifluoromethyl)phenoxy]-3-ethylureido}-2-methyl-N-(2,2,2-trifluoroethyl)propanamide], the “Effectiveness Found” value reads like this: (Compound (II) 2.3 ppm, A single application plot, next generation 10 days after sprinkling) 52%; (Compound (II) 4.7 ppm, A single application plot, next generation 10 days after sprinkling) 74%.

Take `C/C(=N\C#N)N(C)Cc1ccc(Cl)nc1` [acetamiprid]: the “Effectiveness Found” value (acetamiprid 100 ppm, B single application plot, 10 days after sprinkling) was found to be 5%.
